Source: patent publication US7858634B2, “Amorphous 3-pyridil-1-hydroxyethyliden-1,1-biphosphonic acid monosodium salt and process for the preparation thereof” (Chemi SpA, priority 2004, dated 2010)

Assay: comparative dissolution test in deionized water
Settings: for time to complete dissolution: 200 mg suspended in 25 ml deionized water, 20° C., magnetic stirring at 25 rpm, monosodium salt

Row | Compound | time to complete dissolution | water solubility with respect to crystalline forms (amorphous form, preferably lyophilized, vs commercially available or otherwise described crystalline forms)
1 | O=P([O-])(O)C(O)(Cc1cccnc1)P(=O)(O)O.[Na+] [amorphous sodium risedronate, 3-pyridil-1-hydroxyethyliden-1,1-biphosphonic acid monosodium salt] | ≤ 2 ′ | improved water solubility
2 | O=P([O-])(O)C(O)(Cc1cccnc1)P(=O)(O)O.[Na+] [sodium risedronate hemipentahydrate, 3-pyridil-1-hydroxyethyliden-1,1-biphosphonic acid monosodium salt] | > 30 ′ | 
